2 molecules from patent US6710081B1, “Erection insufficiency remedies” (priority 1999, dated 2004) can be followed below.

Structures are written as SMILES.

For data set [1], the system named is corpus cavernosum penis. The data set can be described thus: Intracavernosal pressure increasing activity. The following applies: for Intracavernosal pressure increase: anesthetized beagle, intracavernosal injection, maximum up to 4 minutes from administration. The class given is in vivo, beagle. The source says: Under anesthesia with thiopental, cannulae were indwelled in left cephalic vein (for infusion) and left femoral artery (for measuring blood pressure and heart rate) of a beagle. The epidermis was dissected from the top of penis to scrotum with an electrocautery to expose the albuguinea on the surface of the cavernous body. A cannula with a needle for measuring the inner pressure and administering a chemical was inserted into the cavernous body and (11α,15α,13E)-9-oxo-11,15-dihydroxy-16-(3-methoxy-methylphenyl)-17,18,19,20-tetranor-5-thiaprost-13-enoic acid methyl ester (methyl ester of the compound of formula (I-1) above, hereinafter abbreviated as methyl ester form) was administered in four kinds of dosage, i.e., 0.2, 2.0, 20, and 200 ng. As controls, 20 ng of PGE1 and physiological saline were used.
Through the cannula inserted into the corpus cavernosum penis, the chemical was injected in amounts of 100 μl and was followed by 300 μl saline injection. A difference between the maximum intra pressures up to 4 minutes from the administration and the intra pressure at the time of administration was taken as the value of intracavernosal pressure increase.

For data set [2], the system named is rat. The following applies: in vivo, iv. As to the method: It has been confirmed that the compounds of the present invention of formula (I) have sufficiently low toxicity and are sufficiently safe for use as pharmaceutical preparations. For example, the maximal tolerated dose of methyl ester of the compound of formula (I-1) was 30 mg/kg weight or more for rat intravenous administration.

In data set [1] (dose 20 ng/100 μl), `CCCCC[C@H](O)/C=C/[C@H]1[C@H](O)CC(=O)[C@@H]1CCCCCCC(=O)O` [PGE1, prostaglandin E1, reference compound] registered an Intracavernosal pressure increase of 29.0 ± 12.5 mmHg.

`COCc1cccc(C[C@H](O)/C=C/[C@H]2[C@H](O)CC(=O)[C@@H]2CCSCCCC(=O)OC)c1` [Methyl ester form, (11α,15α,13E)-9-oxo-11,15-dihydroxy-16-(3-methoxy-methylphenyl)-17,18,19,20-tetranor-5-thiaprost-13-enoic acid methyl ester]: the Intracavernosal pressure increase in data set [1] (dose 0.2 ng/100 μl) worked out at 4.3 ± 1.9 mmHg; in data set [1] (dose 2.0 ng/100 μl), 12.7 ± 8.7 mmHg; in data set [1] (dose 20 ng/100 μl), 28.3 ± 12.3 mmHg; in data set [1] (dose 200 ng/100 μl), 40.7 ± 16.6 mmHg. The “Effect on intracavernosal pressure (in words)” value in data set [1] (beagle, 0.2 to 200 ng intracavernosal) is reported as “increased the intracavernosal pressure dose-dependently”. Also, in data set [2], the maximal tolerated dose was ≥ 30 mg/kg weight.
